Drawing on patent US9796709B2, “5-hydroxy-4-(trifluoromethyl)pyrazolopyridine derivative” (Daiichi Sankyo Company, Limited, priority 2013, dated 2017), this text covers EC50 and change in vivo for 17 compounds.

One test deals with T1, LCAT (Homo sapiens, UniProt P04180).
T1 construct: The obtained fraction was dialyzed against phosphate-buffered saline (pH 7.4) and used as an enzyme source and an acceptor for LCAT; from tissue; host or cells: HDL3 fraction (1.125 < specific gravity < 1.210 g/mL) of plasma from a healthy person
T1 sequence (P04180 25-440): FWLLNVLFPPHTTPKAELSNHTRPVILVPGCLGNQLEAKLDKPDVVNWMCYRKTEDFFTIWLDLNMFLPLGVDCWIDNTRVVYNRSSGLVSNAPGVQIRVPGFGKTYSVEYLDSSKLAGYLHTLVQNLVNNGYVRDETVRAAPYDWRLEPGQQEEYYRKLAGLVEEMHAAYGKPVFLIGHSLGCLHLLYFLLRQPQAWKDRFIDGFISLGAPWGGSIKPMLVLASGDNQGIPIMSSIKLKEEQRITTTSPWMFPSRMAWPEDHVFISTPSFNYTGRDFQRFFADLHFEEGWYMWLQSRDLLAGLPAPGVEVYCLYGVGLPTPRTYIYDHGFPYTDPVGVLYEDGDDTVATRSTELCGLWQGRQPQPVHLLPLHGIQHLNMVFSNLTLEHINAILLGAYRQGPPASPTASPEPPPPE
In words: LCAT activity measurement (in vitro), [14C]cholesterol esterification with HDL3 fraction. In kind it is biochemical. The following applies: HDL3 fraction from plasma of a healthy person as enzyme source and acceptor; 37° C., approximately 16 hours; relative to sample without test drug; read-out: EC50 of LCAT activation. The procedure:
A fraction composed of HDL3 (1.125 <specific gravity <1.210 g/mL) was obtained from the plasma of a healthy person by density gradient centrifugation. The obtained fraction was dialyzed against phosphate-buffered saline (pH 7.4) and used as an enzyme source and an acceptor for LCAT. Each test drug was prepared by dissolution in dimethyl sulfoxide. [^14C]Cholesterol containing DTNB (Ellman's reagent, final concentration: 0.5 mM), mercaptoethanol (final concentration: 12.5 mM), and 0.6% bovine serum albumin was added to phosphate-buffered saline (pH 7.4) containing 1 mg/mL HDL3, and the test drug was further added thereto at varying concentrations to adjust the whole amount to 80 μL. This mixture was incubated at 37° C. for approximately 16 hours. Then, a mixed solution of hexane and isopropanol (mixing ratio=3:2) was added thereto to stop the reaction. After stirring, the hexane layer was collected, and this layer was evaporated to dryness. A chloroform solution (concentration: 10 mg/mL) was added thereto, and the mixture was spotted onto a thin-layer silica gel plate and developed using a mixed solution of hexane, diethyl ether, and ethyl acetate (mixing ratio=85:15:2). The radioactivity of a portion corresponding to cholesterol oleate was measured using an imaging analyzer BAS-2500 (manufactured by Fujifilm Corp.). A sample non-supplemented with the test drug was similarly treated and assayed. The EC50 value of LCAT activation was calculated according to the expression given below relative to LCAT activity in the sample non-supplemented with the test drug.
[formula] • wherein X represents the logarithm of the concentration of the test drug; • Y represents the responsiveness (LCAT activity) of the test drug; • Top represents the maximum value (maximum plateau); • Bottom represents the minimum value (minimum plateau); and • EC50 represents the 50% effective concentration.

The next test deals with cynomolgus monkey. The test can be described thus: Drug efficacy test in cynomolgus monkeys (plasma HDL cholesterol). In kind it is in vivo. The following applies: Macaca fascicularis, oral, single dose of 10 mg/kg, from AUC before administration and 24 hours after administration, read-out: Rate of increase in HDL level after administration of single dose. The procedure: Each test drug was dissolved in a propylene glycol (Sigma-Aldrich Corp.)-Tween 80 (Sigma-Aldrich Corp.) mixed solution [4/1 (v/v)] or a 0.5% (w/v) methylcellulose aqueous solution, and the solution was orally administered to a cynomolgus monkey for 1 or 7 days. At day 1 or 7 of the administration period, blood was collected before administration and after administration, and plasma was obtained. The content of cholesterol in the plasma was measured using a commercially available assay kit (Cholesterol-E Wako, Wako Pure Chemical Industries, Ltd.). The lipoprotein profile was analyzed by HPLC (column: LipopropakXL, manufactured by Tosoh Corp.). The contents of HDL cholesterol and non-HDL cholesterol were calculated according to the following calculation expression: Content of HDL cholesterol=Content of cholesterol in the plasma×(Peak area of HDL cholesterol/Total sum of peaks) Content of non-HDL cholesterol=Content of cholesterol in the plasma×(Peak area of non-HDL cholesterol/Total sum of peaks)

Regarding `O=C1Nc2[nH]nc(C3CCN(c4ccc(C(F)(F)F)cn4)CC3)c2[C@@H](C(F)(F)F)[C@H]1O` (single isomer, unassigned) [Example 3, (+)-cis-5-Hydroxy-4-(trifluoromethyl)-3-{1-[5-(trifluoromethyl)pyridin-2-yl]piperidin-4-yl}-1,4,5,7-tetrahydro-6H-pyrazolo[3,4-b]pyridin-6-one], the EC50 on LCAT was 0.013 µM. Also, the change in vivo at 10 mg/kg in the test with cynomolgus monkey worked out at 658%. For the compound `O=C1Nc2[nH]nc(C3CCN(c4cnc(C(F)(F)F)cn4)CC3)c2[C@@H](C(F)(F)F)[C@H]1O` (single isomer, unassigned) [Example 18, (+)-cis-5-Hydroxy-4-(trifluoromethyl)-3-{1-[5-(trifluoromethyl)pyrazin-2-yl]piperidin-4-yl}-1,4,5,7-tetrahydro-6H-pyrazolo[3,4-b]pyridin-6-one], the EC50 on LCAT turned out to be 0.009 µM. The change in vivo at 10 mg/kg with cynomolgus monkey amounted to 644%.

For `N#Cc1cnc(N2CCC(c3n[nH]c4c3[C@@H](C(F)(F)F)[C@@H](O)C(=O)N4)CC2)cc1C(F)(F)F` (single isomer, unassigned) [Example 20, (+)-6-{4-[cis-5-Hydroxy-6-oxo-4-(trifluoromethyl)-4,5,6,7-tetrahydro-1H-pyrazolo[3,4-b]pyridin-3-yl]piperidin-1-yl}-4-(trifluoromethyl)pyridine-3-carbonitrile], the EC50 on LCAT turned out to be 0.051 µM. For the same compound, the change in vivo at 10 mg/kg in the test on cynomolgus monkey was found to be 454%.

Take `O=C1Nc2[nH]nc(C3CCN(c4cnc(C(F)(F)F)nc4)CC3)c2[C@@H](C(F)(F)F)[C@H]1O` (single isomer, unassigned) [Example 21, (+)-cis-5-Hydroxy-4-(trifluoromethyl)-3-{1-[2-(trifluoromethyl)pyrimidin-5-yl]piperidin-4-yl}-1,4,5,7-tetrahydro-6H-pyrazolo[3,4-b]pyridin-6-one]: on LCAT, the EC50 is 0.018 µM. In the test on cynomolgus monkey, the change in vivo at 10 mg/kg was 483%. On to `O=C1Nc2[nH]nc(C3CCN(c4ccnc(C(F)(F)F)n4)CC3)c2[C@@H](C(F)(F)F)[C@H]1O` (single isomer, unassigned) [Example 25, (+)-cis-5-Hydroxy-4-(trifluoromethyl)-3-{1-[2-(trifluoromethyl)pyrimidin-4-yl]piperidin-4-yl}-1,4,5,7-tetrahydro-6H-pyrazolo[3,4-b]pyridin-6-one], for which the EC50 on LCAT came to 0.1 µM. Same read-out and setting: under `O=C1Nc2[nH]nc(C3CCN(c4nnc(C(F)(F)F)s4)CC3)c2[C@@H](C(F)(F)F)[C@H]1O` (single isomer, unassigned) [Example 26, (+)-cis-5-Hydroxy-4-(trifluoromethyl)-3-{1-[5-(trifluoromethyl)-1,3,4-thiadiazol-2-yl]piperidin-4-yl}-1,4,5,7-tetrahydro-6H-pyrazolo[3,4-b]pyridin-6-one] stands 0.065 µM. Still for that read-out and setting: under `Cc1cc(N2CCC(c3n[nH]c4c3[C@@H](C(F)(F)F)[C@@H](O)C(=O)N4)CC2)cnc1C#N` (single isomer, unassigned) [Example 27, (+)-5-{4-[cis-5-Hydroxy-6-oxo-4-(trifluoromethyl)-4,5,6,7-tetrahydro-1H-pyrazolo[3,4-b]pyridin-3-yl]piperidin-1-yl}-3-methylpyridine-2-carbonitrile] stands 0.037 µM; under `N#Cc1cnc(N2CCC(c3n[nH]c4c3[C@@H](C(F)(F)F)[C@@H](O)C(=O)N4)CC2)cn1` (single isomer, unassigned) [Example 28, (+)-5-{4-[cis-5-Hydroxy-6-oxo-4-(trifluoromethyl)-4,5,6,7-tetrahydro-1H-pyrazolo[3,4-b]pyridin-3-yl]piperidin-1-yl}pyrazine-2-carbonitrile], 0.16 µM; under `O=C1Nc2[nH]nc(C3CCN(c4ccc(-c5ccccc5)nn4)CC3)c2[C@@H](C(F)(F)F)[C@H]1O` (single isomer, unassigned) [Example 29, cis-5-hydroxy-3-[1-(6-phenylpyridazin-3-yl)piperidin-4-yl]-4-(trifluoromethyl)-1,4,5,7-tetrahydro-6H-pyrazolo[3,4-b]pyridin-6-one], 0.011 µM. Same read-out and setting: the same measure for `N#Cc1cncc(N2CCC(c3n[nH]c4c3[C@@H](C(F)(F)F)[C@@H](O)C(=O)N4)CC2)c1` (single isomer, unassigned) [Example 31, (+)-5-{4-[cis-5-Hydroxy-6-oxo-4-(trifluoromethyl)-4,5,6,7-tetrahydro-1H-pyrazolo[3,4-b]pyridin-3-yl]piperidin-1-yl}pyridine-3-carbonitrile]: 0.034 µM. For the compound `O=C(OCc1ccccc1)c1cc(N2CCC(c3n[nH]c4c3[C@@H](C(F)(F)F)[C@@H](O)C(=O)N4)CC2)ncc1C(F)(F)F` (single isomer, unassigned) [Example 32, Benzyl (+)-2-{4-[cis-5-hydroxy-6-oxo-4-(trifluoromethyl)-4,5,6,7-tetrahydro-1H-pyrazolo[3,4-b]pyridin-3-yl]piperidin-1-yl}-5-(trifluoromethyl)pyridine-4-carboxylate], the EC50 on LCAT is 0.007 µM. Same read-out and setting: under `CC(C)Oc1ccc(N2CCC(c3n[nH]c4c3[C@@H](C(F)(F)F)[C@@H](O)C(=O)N4)CC2)nc1` (single isomer, unassigned) [Example 36, (+)-cis-5-Hydroxy-3-[1-(5-isopropoxypyridin-2-yl)piperidin-4-yl]-4-(trifluoromethyl)-1,4,5,7-tetrahydro-6H-pyrazolo[3,4-b]pyridin-6-one] stands 0.041 µM. On the same count and under the same terms, the same measure for `O=C1Nc2[nH]nc(C3CCN(c4cncc(C(F)(F)F)c4)CC3)c2[C@@H](C(F)(F)F)[C@H]1O` (single isomer, unassigned) [Example 38, (+)-cis-5-Hydroxy-4-(trifluoromethyl)-3-{1-[5-(trifluoromethyl)pyridin-3-yl]piperidin-4-yl}-1,4,5,7-tetrahydro-6H-pyrazolo[3,4-b]pyridin-6-one]: 0.024 µM. As for `CC(C)Oc1ccc(N2CCC(c3n[nH]c4c3[C@@H](C(F)(F)F)[C@@H](O)C(=O)N4)CC2)cn1` (single isomer, unassigned) [Example 39, cis-5-hydroxy-3-[1-(6-isopropoxypyridin-3-yl)piperidin-4-yl]-4-(trifluoromethyl)-1,4,5,7-tetrahydro-6H-pyrazolo[3,4-b]pyridin-6-one], the EC50 at LCAT came to 0.092 µM. Still for that read-out and setting: under `O=C1Nc2[nH]nc(C3CCN(c4cnc(C5CC5)nc4)CC3)c2[C@@H](C(F)(F)F)[C@H]1O` (single isomer, unassigned) [Example 40, cis-3-[1-(2-cyclopropylpyrimidin-5-yl)piperidin-4-yl]-5-hydroxy-4-(trifluoromethyl)-1,4,5,7-tetrahydro-6H-pyrazolo[3,4-b]pyridin-6-one] stands 0.07 µM; under `CC(C)Oc1ccc(N2CCC(c3n[nH]c4c3[C@@H](C(F)(F)F)[C@@H](O)C(=O)N4)CC2)nn1` (single isomer, unassigned) [Example 41, (+)-cis-5-Hydroxy-3-[1-(6-isopropoxypyridazin-3-yl)piperidin-4-yl]-4-(trifluoromethyl)-1,4,5,7-tetrahydro-6H-pyrazolo[3,4-b]pyridin-6-one], 0.035 µM; under `O=C1Nc2[nH]nc(C3CCN(c4ccc(C(F)(F)F)cn4)CC3)c2C(O)(C(F)(F)F)C1O` (stereo not drawn) [Example 4, 4,5-Dihydroxy-4-(trifluoromethyl)-3-{1-[5-(trifluoromethyl)pyridin-2-yl]piperidin-4-yl}-1,4,5,7-tetrahydro-6H-pyrazolo[3,4-b]pyridin-6-one], 0.022 µM.
